Results taken from ChEMBL document CHEMBL2073786, “MRP2, a human conjugate export pump, is present and transports fluo 3 into apical vacuoles of Hep G2 cells” (Am J Physiol Gastrointest Liver Physiol, 2000).

target: ATP-binding cassette sub-family C member 2 (Homo sapiens, UniProt Q92887); assay: TP_TRANSPORTER: secretion into apical vacuoles in Hep G2 cells; assay type: functional, cell-based; settings: hepg2
Sequence (Q92887 whole entry): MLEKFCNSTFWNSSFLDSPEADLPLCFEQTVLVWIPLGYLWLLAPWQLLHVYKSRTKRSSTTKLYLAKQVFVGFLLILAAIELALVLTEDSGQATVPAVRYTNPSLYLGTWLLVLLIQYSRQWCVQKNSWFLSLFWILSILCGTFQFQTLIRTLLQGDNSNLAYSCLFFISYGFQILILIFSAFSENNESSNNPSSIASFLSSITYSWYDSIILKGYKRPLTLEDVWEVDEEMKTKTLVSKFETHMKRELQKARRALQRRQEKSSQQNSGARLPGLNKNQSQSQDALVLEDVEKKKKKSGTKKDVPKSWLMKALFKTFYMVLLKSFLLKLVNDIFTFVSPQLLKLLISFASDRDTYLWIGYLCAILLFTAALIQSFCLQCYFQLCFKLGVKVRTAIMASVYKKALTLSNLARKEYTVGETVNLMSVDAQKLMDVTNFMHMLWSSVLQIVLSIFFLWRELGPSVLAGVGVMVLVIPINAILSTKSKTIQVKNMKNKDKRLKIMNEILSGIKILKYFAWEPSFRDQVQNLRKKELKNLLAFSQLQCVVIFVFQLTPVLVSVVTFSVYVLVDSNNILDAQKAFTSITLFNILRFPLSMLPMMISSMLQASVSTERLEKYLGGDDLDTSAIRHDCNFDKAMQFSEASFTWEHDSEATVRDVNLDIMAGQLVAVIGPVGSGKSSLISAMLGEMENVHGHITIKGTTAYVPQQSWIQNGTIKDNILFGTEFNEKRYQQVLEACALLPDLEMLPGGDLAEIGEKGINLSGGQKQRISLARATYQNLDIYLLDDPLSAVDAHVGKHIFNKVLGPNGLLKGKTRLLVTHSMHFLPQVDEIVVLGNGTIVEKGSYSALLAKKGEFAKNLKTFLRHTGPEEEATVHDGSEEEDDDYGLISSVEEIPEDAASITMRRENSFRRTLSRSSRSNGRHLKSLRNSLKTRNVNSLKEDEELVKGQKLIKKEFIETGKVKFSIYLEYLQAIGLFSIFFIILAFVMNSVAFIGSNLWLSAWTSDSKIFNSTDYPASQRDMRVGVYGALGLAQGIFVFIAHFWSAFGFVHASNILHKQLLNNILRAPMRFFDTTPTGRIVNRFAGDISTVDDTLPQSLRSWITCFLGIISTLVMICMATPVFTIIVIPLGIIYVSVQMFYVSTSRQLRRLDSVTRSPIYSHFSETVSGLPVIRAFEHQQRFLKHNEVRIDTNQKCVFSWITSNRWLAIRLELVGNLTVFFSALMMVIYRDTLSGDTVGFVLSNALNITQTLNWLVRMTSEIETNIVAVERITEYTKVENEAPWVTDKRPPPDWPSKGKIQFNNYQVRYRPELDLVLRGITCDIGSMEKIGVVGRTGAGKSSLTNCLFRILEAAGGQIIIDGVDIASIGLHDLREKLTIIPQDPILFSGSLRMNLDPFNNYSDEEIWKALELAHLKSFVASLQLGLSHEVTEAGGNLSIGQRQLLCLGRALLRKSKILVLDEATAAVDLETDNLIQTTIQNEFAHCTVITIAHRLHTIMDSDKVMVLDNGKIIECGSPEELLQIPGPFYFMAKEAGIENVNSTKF

Row | SMILES | Activity
1 | CC(CCC(=O)NC(CCCCNc1ccc([N+](=O)[O-])c2nonc12)COO)[C@H]1CC[C@H]2[C@@H]3[C@H](O)CC4C[C@H](O)CC[C@]4(C)[C@H]3CC[C@]12C (some centres undefined) | substrate [+]
2 | CC(CCC(=O)NCC(=O)Nc1ccc(-c2c3ccc(=O)cc-3oc3cc(O)ccc23)c(C(=O)O)c1)[C@H]1CC[C@H]2[C@@H]3[C@H](O)CC4C[C@H](O)CC[C@]4(C)[C@H]3C[C@H](O)[C@]12C (some centres undefined) | substrate [+]
3 | Cc1ccc(N(CC(=O)O)CC(=O)O)c(OCCOc2cc(-c3c4cc(Cl)c(=O)cc-4oc4cc(O)c(Cl)cc34)ccc2N(CC(=O)O)CC(=O)O)c1 | substrate [+]
4 | O=C1OC2(c3ccc(O)cc3Oc3cc(O)ccc32)c2ccccc21 [FLUORESCEIN] | substrate [+]
